# Calls of active or inactive are those of the source.
# What was measured:
# [1] = molecular target: Heat shock protein HSP 90-alpha (Homo sapiens, UniProt P07900); type: functional, organism-based
# [2] = Shn3 3'UTR reporter inhibitors, dose response, cell-based, Clone20 osteoblasts, firefly luciferase, cherry-picked (AID 624132); type: functional;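 further: firefly luciferase luminescence from reporter carrying the Shn3 3'UTR in osteoblasts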
# [3] = HepG2 cell cytotoxicity, dose response, cytotoxicity control for Shn3 inhibitor project, CellTiter-Glo, cherry-picked (AID 624134); type: functional, cell-based
# [4] = control 3'UTR Renilla luciferase suppression, dose response, counter-screen for Shn3 inhibitor project, cell-based, Clone20-Shn3RL, cherry-picked (AID 624133); type: functional
# [5] = cells; type: functional, cell-based
# [6] = molecular target: T1, Nuclear receptor subfamily 0 group B member 1 (Homo sapiens, UniProt P51843); type: functional, cell-based;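 further: HEK293T cells transfected with SF-1 and DAX-1 plus StAR promoter luciferase reporter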
# T1 sequence (P51843 whole entry): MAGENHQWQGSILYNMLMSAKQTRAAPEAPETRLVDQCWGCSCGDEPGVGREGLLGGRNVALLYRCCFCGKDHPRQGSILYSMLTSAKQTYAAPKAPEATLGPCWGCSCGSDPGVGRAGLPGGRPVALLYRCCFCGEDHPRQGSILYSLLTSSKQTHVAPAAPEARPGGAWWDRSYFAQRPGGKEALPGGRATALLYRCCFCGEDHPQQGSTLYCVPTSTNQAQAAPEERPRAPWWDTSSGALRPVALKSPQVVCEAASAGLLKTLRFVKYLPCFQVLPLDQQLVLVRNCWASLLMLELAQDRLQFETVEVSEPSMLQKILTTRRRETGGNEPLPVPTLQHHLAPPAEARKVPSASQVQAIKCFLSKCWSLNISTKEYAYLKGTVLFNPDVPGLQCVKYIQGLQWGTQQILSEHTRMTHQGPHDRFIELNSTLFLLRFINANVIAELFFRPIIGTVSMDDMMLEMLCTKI
# [7] = molecular target: Cytochrome P450 3A4 (Homo sapiens, UniProt P08684);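 further: CYP3A4 tested as one member of a cytochrome P450 panel screen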
# [8] = molecular target: Large T antigen (Simian virus 40, UniProt P03070); type: functional, Betapolyomavirus macacae;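 further: Confirmatory-stage PubChem screen for compounds that inhibit SV40 T antigen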
# [9] = molecular target: T2, Apoptotic protease-activating factor 1 (Homo sapiens, UniProt O14727); type: functional
# T2 sequence (O14727 whole entry): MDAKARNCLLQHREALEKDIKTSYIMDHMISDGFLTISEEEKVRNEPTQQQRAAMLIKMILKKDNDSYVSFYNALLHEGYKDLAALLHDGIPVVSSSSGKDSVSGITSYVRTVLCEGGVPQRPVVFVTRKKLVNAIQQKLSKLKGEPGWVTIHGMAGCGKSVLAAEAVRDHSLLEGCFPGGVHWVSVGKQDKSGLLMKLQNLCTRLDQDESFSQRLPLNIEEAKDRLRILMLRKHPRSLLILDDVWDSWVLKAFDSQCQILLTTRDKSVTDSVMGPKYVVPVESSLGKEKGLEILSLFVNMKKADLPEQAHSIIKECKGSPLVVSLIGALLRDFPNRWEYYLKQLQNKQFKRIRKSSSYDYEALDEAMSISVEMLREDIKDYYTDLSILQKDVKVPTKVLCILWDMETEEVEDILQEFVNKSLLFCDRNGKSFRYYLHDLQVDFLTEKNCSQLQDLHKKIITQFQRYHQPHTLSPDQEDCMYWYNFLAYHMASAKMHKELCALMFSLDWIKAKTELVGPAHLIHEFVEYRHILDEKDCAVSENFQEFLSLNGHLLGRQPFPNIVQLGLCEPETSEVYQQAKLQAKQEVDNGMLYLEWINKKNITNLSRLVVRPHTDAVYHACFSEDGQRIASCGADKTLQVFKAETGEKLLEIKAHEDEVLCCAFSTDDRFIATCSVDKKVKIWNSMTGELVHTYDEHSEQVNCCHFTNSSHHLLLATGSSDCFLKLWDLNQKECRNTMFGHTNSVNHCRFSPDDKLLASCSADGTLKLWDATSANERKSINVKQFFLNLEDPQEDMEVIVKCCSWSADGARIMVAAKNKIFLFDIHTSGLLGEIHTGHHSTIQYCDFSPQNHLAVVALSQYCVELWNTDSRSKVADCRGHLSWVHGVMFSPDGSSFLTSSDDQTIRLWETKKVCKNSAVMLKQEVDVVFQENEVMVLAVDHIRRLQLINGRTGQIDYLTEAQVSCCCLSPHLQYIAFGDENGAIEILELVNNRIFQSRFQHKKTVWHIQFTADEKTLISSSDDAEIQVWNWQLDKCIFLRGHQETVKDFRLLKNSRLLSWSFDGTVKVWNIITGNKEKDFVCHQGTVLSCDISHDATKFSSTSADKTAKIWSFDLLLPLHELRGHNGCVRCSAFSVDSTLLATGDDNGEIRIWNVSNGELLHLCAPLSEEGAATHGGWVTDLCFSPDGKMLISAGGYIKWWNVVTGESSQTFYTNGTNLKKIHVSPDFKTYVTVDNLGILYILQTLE
# [10] = off-target signal loss in HeLa-CEM21 co-culture – HeLa F-luc CTL cells, cherry-picked, counter-screen for HIV-1 Env fusion inhibitor project, dose response (AID 652040); type: functional, cell-based;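 further: potency for signal decrease marking cytotoxic or nonspecific inhibition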
# [11] = molecular target: FAD-linked sulfhydryl oxidase ALR (Homo sapiens, UniProt P55789); test: inhibitors of human ALR sulfhydryl oxidase, dose response, biochemical, H2O2 detection, luminescence, cherry-pick (AID 493248)
# [12] = Fluorescence-based cell-based high throughput dose response assay for inhibitors of the interaction of nucleotide-binding oligomerization domain containing 2 (NOD2) and the receptor-interacting serine-threonine kinase 2 (RIPK2).; type: functional; settings: Homo sapiens
# [13] = molecular target: T3, Short transient receptor potential channel 4 (Mus musculus, UniProt Q9QUQ5); test: mouse TRPC4 channel activators, dose response, cell-based, HEK293 TRPC4/mu-opioid, Fluo-4 calcium (AID 434937); type: functional
# T3 sequence (Q9QUQ5 whole entry): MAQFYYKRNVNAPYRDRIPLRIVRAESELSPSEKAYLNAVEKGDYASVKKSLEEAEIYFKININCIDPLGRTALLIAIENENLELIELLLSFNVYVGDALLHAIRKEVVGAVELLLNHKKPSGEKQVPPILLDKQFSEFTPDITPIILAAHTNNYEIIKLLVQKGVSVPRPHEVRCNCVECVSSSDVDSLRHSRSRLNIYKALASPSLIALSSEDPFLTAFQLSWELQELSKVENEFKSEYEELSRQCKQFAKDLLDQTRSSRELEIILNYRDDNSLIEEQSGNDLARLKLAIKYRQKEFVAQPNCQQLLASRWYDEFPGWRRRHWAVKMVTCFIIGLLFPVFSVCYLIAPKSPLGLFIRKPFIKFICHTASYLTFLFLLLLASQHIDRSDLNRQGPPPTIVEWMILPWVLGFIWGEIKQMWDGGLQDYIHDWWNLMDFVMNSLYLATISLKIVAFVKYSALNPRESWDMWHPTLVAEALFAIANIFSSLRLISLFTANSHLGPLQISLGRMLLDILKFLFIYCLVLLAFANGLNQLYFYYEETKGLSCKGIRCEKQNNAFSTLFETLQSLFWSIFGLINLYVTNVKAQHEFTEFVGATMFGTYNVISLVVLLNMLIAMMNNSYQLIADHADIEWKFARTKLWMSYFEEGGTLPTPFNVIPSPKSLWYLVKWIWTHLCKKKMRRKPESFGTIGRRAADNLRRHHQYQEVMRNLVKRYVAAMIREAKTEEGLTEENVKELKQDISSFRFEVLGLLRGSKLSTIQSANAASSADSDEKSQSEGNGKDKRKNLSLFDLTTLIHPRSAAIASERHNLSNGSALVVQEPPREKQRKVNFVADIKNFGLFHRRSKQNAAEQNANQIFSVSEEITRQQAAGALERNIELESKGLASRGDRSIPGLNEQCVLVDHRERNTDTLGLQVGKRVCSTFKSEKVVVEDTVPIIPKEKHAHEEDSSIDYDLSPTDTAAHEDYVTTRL
# [14] = system: Vero; test: cells; type: functional; settings: Chlorocebus sabaeus
# [15] = molecular target: T4, DNA repair and recombination protein RAD54-like (Homo sapiens, UniProt Q92698); test: inhibitors of human RAD54 branch migration, confirmation, biochemical, fluorescence, cherry-picked samples, dose series (AID 651657); type: functional
# T4 sequence (Q92698 whole entry): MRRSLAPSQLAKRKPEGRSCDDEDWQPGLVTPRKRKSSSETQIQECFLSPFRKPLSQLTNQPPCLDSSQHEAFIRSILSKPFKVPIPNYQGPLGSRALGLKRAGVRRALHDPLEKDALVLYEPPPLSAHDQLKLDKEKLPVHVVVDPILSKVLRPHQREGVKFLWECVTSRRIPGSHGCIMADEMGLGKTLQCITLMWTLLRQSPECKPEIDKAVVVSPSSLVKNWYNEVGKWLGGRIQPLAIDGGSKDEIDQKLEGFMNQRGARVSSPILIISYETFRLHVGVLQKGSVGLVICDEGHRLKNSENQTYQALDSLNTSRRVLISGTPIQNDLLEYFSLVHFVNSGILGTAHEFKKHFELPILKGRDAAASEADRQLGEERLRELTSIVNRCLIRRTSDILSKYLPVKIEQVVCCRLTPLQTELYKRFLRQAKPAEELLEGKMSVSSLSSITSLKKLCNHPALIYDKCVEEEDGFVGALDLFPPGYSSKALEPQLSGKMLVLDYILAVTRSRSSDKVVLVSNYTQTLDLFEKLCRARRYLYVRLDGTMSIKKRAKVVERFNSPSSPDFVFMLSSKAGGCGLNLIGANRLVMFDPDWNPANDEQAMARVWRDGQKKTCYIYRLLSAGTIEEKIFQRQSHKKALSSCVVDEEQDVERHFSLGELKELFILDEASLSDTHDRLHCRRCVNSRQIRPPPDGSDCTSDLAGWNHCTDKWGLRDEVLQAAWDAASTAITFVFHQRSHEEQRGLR
# [16] = molecular target: Paired box protein Pax-8 (Homo sapiens, UniProt Q06710); test: inhibitors of PAX8-driven TPO luciferase reporter, dose response, RMG-I cells, cherry-pick (AID 687027); type: functional, cell-based;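 further: luciferase reporter driven by Pax8 target thyroperoxidase promoter measured by SteadyGlo luminescence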
# Sequence of Paired box protein Pax-8 (Q06710 whole entry): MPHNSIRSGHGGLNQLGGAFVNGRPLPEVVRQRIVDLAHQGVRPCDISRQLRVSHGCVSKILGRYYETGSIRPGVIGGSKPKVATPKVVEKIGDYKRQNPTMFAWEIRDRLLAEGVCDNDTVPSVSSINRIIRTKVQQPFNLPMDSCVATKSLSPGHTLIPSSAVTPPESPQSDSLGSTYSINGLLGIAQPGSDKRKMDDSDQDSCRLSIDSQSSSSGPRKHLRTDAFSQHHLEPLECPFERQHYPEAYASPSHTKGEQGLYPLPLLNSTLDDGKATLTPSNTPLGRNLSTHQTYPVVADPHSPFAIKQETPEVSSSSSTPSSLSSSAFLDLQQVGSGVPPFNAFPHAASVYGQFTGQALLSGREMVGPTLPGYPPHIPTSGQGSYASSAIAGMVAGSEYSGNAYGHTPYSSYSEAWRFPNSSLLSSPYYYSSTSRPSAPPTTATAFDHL
# Sequence of Large T antigen (P03070 whole entry): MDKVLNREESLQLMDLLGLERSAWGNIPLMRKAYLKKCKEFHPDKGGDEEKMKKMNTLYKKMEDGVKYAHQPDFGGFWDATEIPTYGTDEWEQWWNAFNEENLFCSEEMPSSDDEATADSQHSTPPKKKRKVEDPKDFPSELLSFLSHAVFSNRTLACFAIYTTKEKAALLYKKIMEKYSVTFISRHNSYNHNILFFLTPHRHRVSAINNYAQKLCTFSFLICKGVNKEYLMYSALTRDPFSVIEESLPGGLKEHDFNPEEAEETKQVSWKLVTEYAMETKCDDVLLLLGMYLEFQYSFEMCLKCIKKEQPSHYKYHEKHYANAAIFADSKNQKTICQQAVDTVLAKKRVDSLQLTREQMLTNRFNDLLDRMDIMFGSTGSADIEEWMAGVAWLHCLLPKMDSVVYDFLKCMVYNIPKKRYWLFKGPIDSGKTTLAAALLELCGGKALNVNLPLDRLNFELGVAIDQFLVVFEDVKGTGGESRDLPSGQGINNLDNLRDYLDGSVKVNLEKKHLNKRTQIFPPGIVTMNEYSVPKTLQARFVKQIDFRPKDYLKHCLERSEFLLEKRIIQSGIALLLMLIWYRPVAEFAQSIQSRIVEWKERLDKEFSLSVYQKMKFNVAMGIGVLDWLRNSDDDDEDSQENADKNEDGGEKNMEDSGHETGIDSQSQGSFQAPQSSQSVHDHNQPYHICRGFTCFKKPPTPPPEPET
# Sequence of Cytochrome P450 3A4 (P08684 whole entry): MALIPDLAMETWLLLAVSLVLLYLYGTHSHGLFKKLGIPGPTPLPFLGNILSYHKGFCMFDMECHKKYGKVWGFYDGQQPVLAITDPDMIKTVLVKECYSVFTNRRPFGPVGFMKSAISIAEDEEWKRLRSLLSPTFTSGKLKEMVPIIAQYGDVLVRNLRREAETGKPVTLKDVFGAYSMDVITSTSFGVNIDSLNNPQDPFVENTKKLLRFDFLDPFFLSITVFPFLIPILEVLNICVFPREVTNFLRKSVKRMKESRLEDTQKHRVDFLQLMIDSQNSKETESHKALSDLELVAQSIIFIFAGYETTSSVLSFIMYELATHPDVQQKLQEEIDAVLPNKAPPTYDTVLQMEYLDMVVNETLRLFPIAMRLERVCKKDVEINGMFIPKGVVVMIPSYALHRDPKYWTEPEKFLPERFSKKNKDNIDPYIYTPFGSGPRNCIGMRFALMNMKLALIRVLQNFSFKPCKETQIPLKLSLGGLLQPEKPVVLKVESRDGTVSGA
# Sequence of FAD-linked sulfhydryl oxidase ALR (P55789 whole entry, the tested form may be a part): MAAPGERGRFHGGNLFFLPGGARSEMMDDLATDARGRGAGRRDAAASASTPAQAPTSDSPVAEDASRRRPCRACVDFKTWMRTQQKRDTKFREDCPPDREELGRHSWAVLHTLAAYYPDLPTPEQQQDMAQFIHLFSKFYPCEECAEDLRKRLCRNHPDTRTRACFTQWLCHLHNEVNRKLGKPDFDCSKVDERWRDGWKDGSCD
smiles,measurement,setting,value
O=C(OCc1ccccc1)c1ccc(NCc2cc(O)ccc2O)cc1,AC50,[1],8.63 µM (active)
same,AC50,[2],0.711 µM (active)
same,AC50,[3],22 µM (active)
same,AC50,[4],3.87 µM (active)
O=C(COc1ccc(Cl)cc1Cl)NC(=O)NC1CCCC1,IC50,[5],> 67.5 µM (inactive)
same,IC50,[6],> 67.5 µM (inactive)
Cn1cccc1C(=O)N1CCC2(CCN(C(=O)Nc3ccccc3)CC2)CC1,AC50,[7],inconclusive
COc1cc(-c2c(C#N)c(O)nc3c2c(C)nn3-c2ccccc2)ccc1O,IC50,[8],> 100 µM (active)
same,IC50,[9],20.5 µM (active)
CC1CCCC(C)N1CCCNC(=O)c1nn(C)c2c1CSc1ccccc1-2 (stereo not given),AC50,[10],> 70 µM (inactive)
COc1ccc(/C=N/Nc2nc3ccccc3o2)cc1O,AC50,[11],2.59 µM (active)
same,IC50,[5],> 67.5 µM (inactive)
same,IC50,[6],> 67.5 µM (inactive)
Cc1noc2ncnc(Sc3c(Cl)cccc3Cl)c12,IC50,[12],4.6 µM (active)
NCCSc1c(-c2ccc(Cl)cc2)[nH]c2ccccc12,EC50,[13],4.73 µM (active)
same,CC50,[14],> 25 µM (active)
c1ccc2c3nc[nH]c(N4CCN(C5CCCCC5)CC4)c-3nc2c1,AC50,[15],40.5 µM (active)
COc1c(C=O)c2c(c(OC)c1OC)-c1ccc(OC)c(=O)cc1C(NC(C)=O)CC2 (stereo not given),IC50,[5],> 67.5 µM (inactive)
same,IC50,[6],> 67.5 µM (inactive)
same,AC50,[16],< 0.26 µM (active)

# From ChEMBL document CHEMBL1201862, “PubChem BioAssay data set” (2004)
